# System: NT-2 testicular tumor
# Test: NT-2 testicular tumor xenograft in SCID mice
# Assay type: in vivo
# Settings: male SCID mice; for growth of NT-2 tumors: every 2 days
# Description: FIG. 14A-C: Male SCID NT-2 testicular tumor bearing mice treated with 4 mg/kg Compound of formula (I) (P1 version) via oral route of administration (P.O). […] Tumor areas were measured with a Vernier caliper (prior to each treatment cycle). Animals were euthanized when the control (0.1% DMSO:PBS) treated mice reached the defined endpoint of 225 mm^2. Data representative of at least 5 independent experiments. […] (B) is a graph depicting percentage change of tumour volume versus days after the first treatment. (C) is a graph depicting percentage survival versus days after the first treatment.
# FIG. 15A-D: Male SCID NT-2 testicular tumor bearing mice treated with 4 mg/kg Compound of formula (I) (P1 version) via intraperitoneal route of administration (I.P). […] Tumor areas were measured with a Vernier caliper (prior to each treatment cycle). Animals were euthanized when the control (0.1% DMSO:PBS) treated mice reached the defined endpoint of 225 mm^2. Data representative of at least 5 independent experiments. […] (B) is a graph depicting percentage of tumour size versus days after the first treatment. (C) is a graph depicting percentage survival versus days after the first treatment. (D) is a photograph showing excised tumours.
# FIG. 16A&B: Male SCID NT-2 testicular tumor bearing mice treated with 4 mg/kg Compound of formula (I) (P1 isomer) via intravenous route of administration (I.V). […] Tumor areas were measured with a Vernier caliper (prior to each treatment cycle). Animals were euthanized when the control (0.1% DMSO:PBS) treated mice reached the defined endpoint of 225 mm^2. Data representative of at least 5 independent experiments. (A) is a photograph showing excised tumours. (B) is graph depicting percentage of tumor size versus number of treatments.
# All animal procedures were carried out in accordance with the guidelines of the Canadian Council on Animal Care and the NIH guidelines on the care and use of laboratory animals. All protocols were reviewed and approved by the Animal Care Committee of the University of Calgary (Protocol approval number: AC21-0147). Six- to eight-week-old female or male CB17 severe combined immunodeficiency (SCID) mice (Charles River Laboratories, Saint-Constant, QC, Canada) were subcutaneously injected in the right flank with 3×10^6 YP-MEL or NT-2 cells suspended in 0.1 mL sterile PBS. After tumor injection, animals with detectable tumor growth of at least 50 mm^2 were randomized into groups. The groups were treated with either 0.1% DMSO:PBS vehicle or 4 mg/kg of Compound of formula (I) dissolved in the vehicle, intraperitoneally (I.P), orally (P.O) or intravenously (I.V). Animals and respective cages were monitored for food and bedding supplies daily; doses were injected every 2 days and tumor areas were measured with a Vernier caliper (prior to each treatment cycle). When vehicle treated tumors reached the defined endpoint of 225 mm^2, every mouse in the group were euthanized. Tumors were excised and immediately imaged and processed for western blotting or fixed in paraformaldehyde for toxicology evaluation. (A)
smiles,measurement,setting,value
CC[C@H](C)[C@H](NC(=O)[C@H](Cc1ncc[nH]1)NC(=O)c1cccc(C(N)=O)c1)C(=O)Nc1ccc(O)c(-c2nc3ccccc3s2)c1 [Compound P1],treated animals that survived tumor-free for 120 days,4 mg/kg I.P,at least 50%
same,growth of NT-2 tumors,4 mg/kg I.P,significantly reduced the growth
same,growth of NT-2 tumors,4 mg/kg I.V,significantly reduced the growth
same,tumor shrinkage,"4 mg/kg I.V, with only 4 doses",in some cases showed complete shrinkage
same,growth of NT-2 tumors,4 mg/kg P.O,significantly reduced the growth

# — patent US20230391824A1, “RATIONALE, DESIGN, SYNTHESIS AND VALIDATION OF A SMALL MOLECULE ANTICANCER AGENT” (priority 2021, published 2023)
